Test results reported in paper PMC12154031, “Screening and Validation: AI-Aided Discovery of Dipeptidyl Peptidase-4 Inhibitory Peptides from Hydrolyzed Rice Proteins” (Foods, 2025).
Like-named read-outs stand apart in the source and are kept apart here. No end group written: not given here.

Tests used:
DPP-4 [1] = biological target: T1, DPP-4 (Homo sapiens, UniProt P27487); assay: DPP-IV-inhibitory activity, Gly-Pro-pNA substrate; type: biochemical; conditions: 37 °C, 15 min; for IC50: Tris–HCl 20 mM pH 8.0, substrate Gly-Pro-pNA 1 mM (50 µL), 0.05 mg/mL DPP-4 (10 µL), peptide in ddH2O, dark, absorbance 405 nm, triplicate, four-parameter logistic fit
T1 construct: purchased Adamas (Shanghai Adamas Reagent Co., Ltd., Shanghai, China)
Procedure: The assay method for measuring the peptide inhibition of DPP-4 was based on the combination of two established protocols: the peptides were dissolved in ddH2O to prepare a gradient of concentrations and the DPP-4 enzyme was diluted in Tris–HCl (20 mM, pH 8.0). In a 96-well plate, 30 µL ddH2O, 10 µL peptide solution, 50 µL substrate (1 mM), and 10 µL DPP-4 enzyme (0.05 mg/mL) were added sequentially. Each peptide concentration was tested in triplicate and incubated at 37 °C in the dark for 15 min, and then 100 µL of 0.1 M NaHCO3 solution was added to stop the reaction. The absorbance at 405 nm was measured on a microplate reader, and the percent inhibition of DPP-4 was calculated at each concentration. The IC50 values for the four peptides were determined by fitting the dose–response curves with the log peptide concentration on the x-axis and the DI (%) on the y-axis. The DPP-IV-inhibition (DI) was calculated as follows:(8) DI%=(1−A405peptide−A405buffer/A405positive control−A405negtive control)×[…] where A405 (peptide) represents the optical density (at 405 nm) of the enzyme (DPP-IV) in the presence of the substrate (Gly-Pro-p-nitroanilide) and inhibitor (inhibitory peptide); A405 (buffer) represents the optical density of ddH2O; A405 (positive reaction) represents the optical density of the enzyme and the substrate in the absence of inhibitor; and A405 (negative reaction) represents the optical density of the enzyme in the absence of the substrate and inhibitor.
Origin 2024 was used to sort out the physical and chemical property data and create heatmaps to visualize the correlation between the peptide activity, the docking energy, and the physicochemical properties. GraphPad Prism 10 was used to perform non-linear regression of the DPP-4 percent inhibition versus the log[concentration]. The differences between the IC50 values of DPP-IV were subjected to the ordinary one-way ANOVA test. A p-value < 0.05 was considered significant. Other images were created by Python 3.13.2 and Adobe Illustrator 2022. We evaluated Section 2 of the article using the TRIPOD (Transparent Reporting of a multivariable prediction model for Individual Prognosis Or Diagnosis) framework from the EQUATOR Network.

DPP-4 [2] = biological target: T1, DPP-4; design: method as in PMID 29963014, PMID 6427168; conditions: known DPP-4 inhibitory peptide, positive control; ref [41],[42]; cited from earlier work

T1 sequence (P27487 whole entry): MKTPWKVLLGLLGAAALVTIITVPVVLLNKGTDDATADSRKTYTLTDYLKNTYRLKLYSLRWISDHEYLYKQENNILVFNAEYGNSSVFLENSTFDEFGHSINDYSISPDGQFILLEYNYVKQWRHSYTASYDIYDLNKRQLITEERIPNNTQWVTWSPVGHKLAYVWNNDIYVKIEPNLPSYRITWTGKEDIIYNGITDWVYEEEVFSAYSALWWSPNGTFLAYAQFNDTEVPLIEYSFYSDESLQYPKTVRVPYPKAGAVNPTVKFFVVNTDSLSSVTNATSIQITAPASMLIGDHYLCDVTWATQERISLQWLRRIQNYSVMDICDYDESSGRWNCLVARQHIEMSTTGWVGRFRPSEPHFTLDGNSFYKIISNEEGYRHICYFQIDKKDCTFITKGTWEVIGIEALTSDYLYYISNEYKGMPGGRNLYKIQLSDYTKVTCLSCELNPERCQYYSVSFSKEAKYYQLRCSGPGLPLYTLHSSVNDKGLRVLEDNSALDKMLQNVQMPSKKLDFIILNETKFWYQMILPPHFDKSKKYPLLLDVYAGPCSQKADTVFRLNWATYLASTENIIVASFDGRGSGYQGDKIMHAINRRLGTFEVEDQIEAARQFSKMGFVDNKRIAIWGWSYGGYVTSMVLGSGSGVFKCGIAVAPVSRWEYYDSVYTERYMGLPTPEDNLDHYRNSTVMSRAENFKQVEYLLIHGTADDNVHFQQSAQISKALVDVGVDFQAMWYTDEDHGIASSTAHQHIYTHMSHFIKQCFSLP

| IC50 (DPP-4 [1]; read-out: IC50) [µM] | Substance | other results |
| --- | --- | --- |
|  | CPPPPAAY [rice-derived proline-rich peptide, synthesized, purity of 95%] | IC50 (DPP-4 [1]): could not be determined; DPP-4 inhibition (DI%), result in words (DPP-4 [1]; within the tested concentration range, pH 8.0, n = 3): showed no inhibitory effect |
|  | Diprotin A [IPI] | IC50 (DPP-4 [2]): ~3.5 µM |
| 177 ± 6 | PPPPPPPPA [PPPPPPPPA] |  |
| 153 ± 5.7 | PPPPPY [PPPPPY] |  |
| 216 ± 4.5 | PPPSPPPV [PPPSPPPV] |  |
